Results published in ChEMBL document CHEMBL4028908, “The Discovery of 3-((4-Chloro-3-methoxyphenyl)amino)-1-((3R,4S)-4-cyanotetrahydro-2H-pyran-3-yl)-1H-pyrazole-4-carboxamide, a Highly Ligand Efficient and Efficacious Janus Kinase 1 Selective Inhibitor with Favorable Pharmacokinetic Properties” (J Med Chem, 2017).
Converted amounts (≈) assume the structure as drawn.

Columns and labels:
[1] = molecular target: Voltage-gated inwardly rectifying potassium channel KCNH2 (Homo sapiens, UniProt Q12809)
Voltage-gated inwardly rectifying potassium channel KCNH2, sequence (Q12809 whole entry): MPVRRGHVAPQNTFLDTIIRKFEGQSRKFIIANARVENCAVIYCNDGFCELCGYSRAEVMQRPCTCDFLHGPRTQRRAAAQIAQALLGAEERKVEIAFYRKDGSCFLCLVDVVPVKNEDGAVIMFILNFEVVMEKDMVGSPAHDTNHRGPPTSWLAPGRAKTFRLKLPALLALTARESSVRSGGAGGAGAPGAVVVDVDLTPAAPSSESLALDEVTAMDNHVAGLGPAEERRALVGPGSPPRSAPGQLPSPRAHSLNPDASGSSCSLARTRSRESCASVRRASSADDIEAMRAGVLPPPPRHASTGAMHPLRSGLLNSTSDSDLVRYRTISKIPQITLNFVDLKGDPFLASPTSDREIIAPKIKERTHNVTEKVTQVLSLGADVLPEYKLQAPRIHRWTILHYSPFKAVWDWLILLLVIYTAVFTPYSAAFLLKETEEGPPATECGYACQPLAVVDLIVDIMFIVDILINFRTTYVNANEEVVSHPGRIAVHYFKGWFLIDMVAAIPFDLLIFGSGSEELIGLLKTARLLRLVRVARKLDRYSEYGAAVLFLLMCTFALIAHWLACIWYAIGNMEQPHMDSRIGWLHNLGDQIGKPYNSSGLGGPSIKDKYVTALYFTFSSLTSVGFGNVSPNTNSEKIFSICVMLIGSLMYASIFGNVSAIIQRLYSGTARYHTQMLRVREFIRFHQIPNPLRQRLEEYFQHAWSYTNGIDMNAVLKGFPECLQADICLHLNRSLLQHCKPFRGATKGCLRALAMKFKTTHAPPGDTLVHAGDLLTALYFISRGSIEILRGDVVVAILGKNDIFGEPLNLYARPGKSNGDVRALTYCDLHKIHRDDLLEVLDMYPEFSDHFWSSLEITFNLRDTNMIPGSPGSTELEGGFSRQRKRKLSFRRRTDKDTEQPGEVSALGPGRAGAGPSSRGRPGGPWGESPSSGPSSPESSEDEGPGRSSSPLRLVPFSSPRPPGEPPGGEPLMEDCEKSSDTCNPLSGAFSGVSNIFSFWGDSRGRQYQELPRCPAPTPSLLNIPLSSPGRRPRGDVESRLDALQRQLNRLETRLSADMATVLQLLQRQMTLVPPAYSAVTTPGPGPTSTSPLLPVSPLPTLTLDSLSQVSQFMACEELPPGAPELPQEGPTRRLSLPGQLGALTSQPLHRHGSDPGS

[2] = Oral bioavailability in rat at 1 mg/kg; assay type: ADME, organism-based; conditions: in vivo
[3] = Lipophilicity, log D of the compound at 100 uM at pH 7 by HPLC/DAD analysis; assay type: physicochemical; conditions: buffer
[4] = Intrinsic clearance in rat hepatocytes after 120 mins by LC-MS/MS analysis; assay type: ADME, cell-based, Hepatocyte; conditions: read-out: CLH
[5] = molecular target: T1, Tyrosine-protein kinase JAK2 (Homo sapiens, UniProt O60674)
T1 sequence (O60674 whole entry): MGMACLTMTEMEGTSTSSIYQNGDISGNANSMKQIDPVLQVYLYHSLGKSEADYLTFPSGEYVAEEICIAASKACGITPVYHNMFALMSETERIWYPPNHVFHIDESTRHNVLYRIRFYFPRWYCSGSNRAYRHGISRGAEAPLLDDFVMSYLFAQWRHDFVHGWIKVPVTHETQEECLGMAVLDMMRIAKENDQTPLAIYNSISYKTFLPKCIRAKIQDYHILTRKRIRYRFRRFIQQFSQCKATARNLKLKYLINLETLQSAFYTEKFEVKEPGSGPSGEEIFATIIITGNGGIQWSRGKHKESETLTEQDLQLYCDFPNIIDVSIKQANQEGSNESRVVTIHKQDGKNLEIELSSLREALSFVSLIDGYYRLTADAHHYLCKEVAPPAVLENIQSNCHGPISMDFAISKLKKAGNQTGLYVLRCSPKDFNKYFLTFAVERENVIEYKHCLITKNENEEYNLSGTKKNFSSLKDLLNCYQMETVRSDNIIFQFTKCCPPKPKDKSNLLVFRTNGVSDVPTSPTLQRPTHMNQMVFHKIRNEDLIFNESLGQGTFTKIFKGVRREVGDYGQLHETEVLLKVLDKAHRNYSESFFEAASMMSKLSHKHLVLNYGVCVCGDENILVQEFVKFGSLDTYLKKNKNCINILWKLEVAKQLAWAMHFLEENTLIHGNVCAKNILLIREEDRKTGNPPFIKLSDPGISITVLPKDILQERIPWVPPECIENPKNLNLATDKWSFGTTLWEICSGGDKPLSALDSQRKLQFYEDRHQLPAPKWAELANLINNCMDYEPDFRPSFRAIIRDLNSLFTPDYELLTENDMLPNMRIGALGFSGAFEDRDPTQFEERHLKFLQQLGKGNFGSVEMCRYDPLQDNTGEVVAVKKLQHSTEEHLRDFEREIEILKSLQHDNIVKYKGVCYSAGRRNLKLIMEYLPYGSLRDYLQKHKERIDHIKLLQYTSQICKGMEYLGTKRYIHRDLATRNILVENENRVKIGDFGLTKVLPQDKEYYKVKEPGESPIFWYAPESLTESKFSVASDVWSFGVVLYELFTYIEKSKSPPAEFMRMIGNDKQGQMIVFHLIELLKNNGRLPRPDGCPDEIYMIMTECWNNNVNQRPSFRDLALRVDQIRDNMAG

[6] = molecular target: Non-receptor tyrosine-protein kinase TYK2 (Homo sapiens, UniProt P29597)
Non-receptor tyrosine-protein kinase TYK2, sequence (P29597 whole entry): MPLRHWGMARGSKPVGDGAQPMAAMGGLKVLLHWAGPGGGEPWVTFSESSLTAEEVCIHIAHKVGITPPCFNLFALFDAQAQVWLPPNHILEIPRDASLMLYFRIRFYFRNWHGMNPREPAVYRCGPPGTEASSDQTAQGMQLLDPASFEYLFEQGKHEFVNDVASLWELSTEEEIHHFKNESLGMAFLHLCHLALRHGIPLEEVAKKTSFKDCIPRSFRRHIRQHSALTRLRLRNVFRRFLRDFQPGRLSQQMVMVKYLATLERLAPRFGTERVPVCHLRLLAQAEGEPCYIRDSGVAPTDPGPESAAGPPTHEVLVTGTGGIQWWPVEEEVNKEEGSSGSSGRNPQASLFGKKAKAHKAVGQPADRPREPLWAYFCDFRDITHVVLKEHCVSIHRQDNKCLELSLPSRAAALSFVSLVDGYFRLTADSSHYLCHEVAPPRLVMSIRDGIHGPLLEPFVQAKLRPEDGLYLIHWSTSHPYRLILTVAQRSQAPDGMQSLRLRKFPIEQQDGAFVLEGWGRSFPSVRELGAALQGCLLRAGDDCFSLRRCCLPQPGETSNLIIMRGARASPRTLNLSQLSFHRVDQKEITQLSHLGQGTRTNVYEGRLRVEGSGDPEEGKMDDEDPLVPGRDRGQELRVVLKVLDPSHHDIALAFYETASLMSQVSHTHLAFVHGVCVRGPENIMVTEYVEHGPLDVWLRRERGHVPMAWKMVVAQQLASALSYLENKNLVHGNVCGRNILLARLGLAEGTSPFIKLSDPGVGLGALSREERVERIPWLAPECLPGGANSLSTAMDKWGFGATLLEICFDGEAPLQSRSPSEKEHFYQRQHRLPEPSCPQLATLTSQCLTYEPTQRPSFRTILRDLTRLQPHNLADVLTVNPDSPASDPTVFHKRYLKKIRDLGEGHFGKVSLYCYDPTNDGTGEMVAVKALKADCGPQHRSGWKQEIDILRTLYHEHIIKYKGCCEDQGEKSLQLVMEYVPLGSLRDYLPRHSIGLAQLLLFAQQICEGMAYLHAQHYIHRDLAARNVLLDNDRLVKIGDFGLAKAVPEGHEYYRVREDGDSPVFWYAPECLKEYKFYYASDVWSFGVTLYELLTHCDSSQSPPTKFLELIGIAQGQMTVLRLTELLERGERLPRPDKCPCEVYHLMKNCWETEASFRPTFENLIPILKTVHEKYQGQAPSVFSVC

[7] = molecular target: T2, Tyrosine-protein kinase JAK1 (Homo sapiens, UniProt P23458)
T2 sequence (P23458 whole entry): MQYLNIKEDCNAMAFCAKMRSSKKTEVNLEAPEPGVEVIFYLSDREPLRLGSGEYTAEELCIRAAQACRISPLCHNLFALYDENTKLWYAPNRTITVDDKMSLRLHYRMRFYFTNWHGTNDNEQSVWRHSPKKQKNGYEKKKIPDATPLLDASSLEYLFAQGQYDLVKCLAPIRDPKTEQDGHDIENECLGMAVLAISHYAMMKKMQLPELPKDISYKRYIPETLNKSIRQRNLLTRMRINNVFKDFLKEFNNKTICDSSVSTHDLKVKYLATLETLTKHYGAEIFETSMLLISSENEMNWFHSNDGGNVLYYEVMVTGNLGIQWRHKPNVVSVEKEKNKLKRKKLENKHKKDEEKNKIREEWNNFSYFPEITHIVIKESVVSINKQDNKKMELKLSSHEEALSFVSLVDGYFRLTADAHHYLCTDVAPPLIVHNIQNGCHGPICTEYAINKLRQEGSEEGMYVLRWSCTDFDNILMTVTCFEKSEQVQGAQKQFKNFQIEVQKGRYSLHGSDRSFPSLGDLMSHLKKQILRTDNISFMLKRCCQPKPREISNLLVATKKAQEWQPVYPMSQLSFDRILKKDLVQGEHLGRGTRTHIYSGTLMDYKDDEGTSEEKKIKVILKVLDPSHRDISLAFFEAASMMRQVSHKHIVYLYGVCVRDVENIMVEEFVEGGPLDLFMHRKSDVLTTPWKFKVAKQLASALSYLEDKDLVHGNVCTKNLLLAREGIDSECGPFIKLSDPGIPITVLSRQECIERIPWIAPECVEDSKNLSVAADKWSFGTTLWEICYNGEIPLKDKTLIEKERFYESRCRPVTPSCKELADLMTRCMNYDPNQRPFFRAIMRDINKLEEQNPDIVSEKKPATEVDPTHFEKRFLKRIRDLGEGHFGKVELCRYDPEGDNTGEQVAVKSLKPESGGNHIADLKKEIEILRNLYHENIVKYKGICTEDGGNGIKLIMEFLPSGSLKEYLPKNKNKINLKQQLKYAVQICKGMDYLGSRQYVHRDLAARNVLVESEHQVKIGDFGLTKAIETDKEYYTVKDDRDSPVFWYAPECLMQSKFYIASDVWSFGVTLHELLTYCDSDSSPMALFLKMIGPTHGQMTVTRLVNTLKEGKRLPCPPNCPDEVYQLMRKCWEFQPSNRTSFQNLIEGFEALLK

[8] = Intrinsic clearance in human hepatocytes after 120 mins by LC-MS/MS analysis; assay type: ADME, cell-based, Hepatocyte; conditions: read-out: CLH
Homo sapiens = organism: Homo sapiens; test: Selectivity ratio of IC50 for GST-tagged recombinant human JAK2 catalytic domain to IC50 for GST-tagged recombinant human JAK1 catalytic domain
[9] = molecular target: T3, Tyrosine-protein kinase JAK3 (Homo sapiens, UniProt P52333)
T3 sequence (P52333 whole entry): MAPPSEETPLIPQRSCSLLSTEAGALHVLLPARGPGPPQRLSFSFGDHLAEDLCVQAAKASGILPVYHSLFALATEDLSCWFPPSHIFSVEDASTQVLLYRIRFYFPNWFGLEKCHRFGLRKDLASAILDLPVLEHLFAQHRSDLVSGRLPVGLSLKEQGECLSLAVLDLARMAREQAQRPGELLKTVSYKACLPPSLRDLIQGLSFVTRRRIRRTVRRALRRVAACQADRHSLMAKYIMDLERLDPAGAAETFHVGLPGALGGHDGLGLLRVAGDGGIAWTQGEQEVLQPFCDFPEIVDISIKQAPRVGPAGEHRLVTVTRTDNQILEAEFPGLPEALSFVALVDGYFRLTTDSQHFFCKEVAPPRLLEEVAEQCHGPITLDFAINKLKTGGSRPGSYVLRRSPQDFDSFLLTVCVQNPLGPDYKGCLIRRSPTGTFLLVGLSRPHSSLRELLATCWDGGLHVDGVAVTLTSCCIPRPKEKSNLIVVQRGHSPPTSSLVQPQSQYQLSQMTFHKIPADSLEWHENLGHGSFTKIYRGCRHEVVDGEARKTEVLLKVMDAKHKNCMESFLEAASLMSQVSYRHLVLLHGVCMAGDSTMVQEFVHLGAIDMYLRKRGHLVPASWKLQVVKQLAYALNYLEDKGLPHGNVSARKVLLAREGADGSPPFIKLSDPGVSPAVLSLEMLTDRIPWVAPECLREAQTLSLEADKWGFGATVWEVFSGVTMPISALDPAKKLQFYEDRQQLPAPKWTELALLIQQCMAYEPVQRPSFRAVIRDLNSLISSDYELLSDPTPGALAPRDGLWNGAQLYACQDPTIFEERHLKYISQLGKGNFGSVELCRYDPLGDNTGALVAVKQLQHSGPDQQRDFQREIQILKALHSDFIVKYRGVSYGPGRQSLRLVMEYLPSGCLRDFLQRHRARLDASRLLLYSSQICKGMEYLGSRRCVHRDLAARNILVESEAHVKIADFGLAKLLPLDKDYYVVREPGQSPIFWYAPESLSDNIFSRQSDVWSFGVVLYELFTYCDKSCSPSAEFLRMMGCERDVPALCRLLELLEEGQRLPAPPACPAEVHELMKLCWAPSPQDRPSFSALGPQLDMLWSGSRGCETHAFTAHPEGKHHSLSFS

[10] = molecular target: T1, Tyrosine-protein kinase JAK2; remark: listed apart in the source
[11] = molecular target: T2, Tyrosine-protein kinase JAK1; remark: listed apart in the source
[12] = Solubility of the compound in FaSSIF solution at 100 uM after overnight incubation by UPLC/DAD analysis; assay type: physicochemical

Row | Structure (SMILES) | IC50 [1] [nM] | bioavailability [2] [%] | logD at 100 µM [3] | CLint scaled [4] [mL/min/kg] | IC50 [5] [nM] | IC50 [6] [nM] | IC50 [7] [nM] | CLint scaled [8] [mL/min/kg] | Ratio IC50 (Homo sapiens) | IC50 [9] [nM] | IC50 [10] [nM] | IC50 [11] [nM] | solubility at 100 µM [12] [µM]
1 | N#C[C@H]1C[C@@H](O)CC[C@@H]1n1cc(C(N)=O)c(Nc2ccc(Cl)cc2)n1 | 26000 | 10 |  |  |  |  |  |  |  |  |  |  | 
2 | N#C[C@H]1CCOC[C@@H]1n1cc(C(N)=O)c(Nc2ccc(OC(F)F)cc2)n1 | 25000 | 42 | 2.27 | 59 | 54 | 0.7 | 5 | 28 | 11 | 196 | 0.8 | 0.1 | 
3 | CN(C)c1cc(Nc2nn([C@H]3COCC[C@@H]3C#N)cc2C(N)=O)cc(F)n1 |  | 4 | 2.07 | 9 | 530 | 13 | 28 | 4 | 19 | 701 | 3.4 | 0.18 | 
4 | N#C[C@H]1CCOC[C@@H]1n1cc(C(N)=O)c(Nc2ccc(C3CC3)cc2)n1 | 35000 |  | 2.58 | 262 | 200 | 3.9 | 37 | 41 | 4 | 280 | 1.9 | 0.5 | 
5 | N#Cc1ccc(Nc2nn([C@H]3COCC[C@@H]3C#N)cc2C(N)=O)cc1C#N |  |  | 1.99 |  | 1190 | 11 | 77 |  | 6 | 656 | 5 | 0.9 | 
6 | N#C[C@H]1CCOC[C@@H]1n1cc(C(N)=O)c(Nc2ccc(Cl)cc2)n1 | 40000 | 71 | 2.57 | 9 |  | 2 |  | 85 |  | 256 |  |  | 39 (≈ 13.5 µg/mL)
7 | C[C@@H]1NS(=O)(=O)c2ccc(Nc3nn([C@H]4COCC[C@@H]4C#N)cc3C(N)=O)cc21 |  |  | 3.15 | 62 | 224 | 1.7 | 16 | 62 | 50 | 315 | 2 | 0.04 | 
8 | COc1cc(Nc2nn([C@H]3COCC[C@@H]3C#N)cc2C(N)=O)ccc1C#N |  | 2 | 1.87 | < 40 | 430 | 9 | 19 | 24 | 46 | 391 | 3.2 |  | 
9 | Cc1ncnc2ccc(Nc3nn([C@H]4COCC[C@@H]4C#N)cc3C(N)=O)cc12 |  |  | 1.02 |  | 1630 | 14 | 24 |  | 43 | 783 | 7 | 0.16 | 
10 | N#Cc1ccc(Nc2nn([C@H]3COCC[C@@H]3C#N)cc2C(N)=O)cc1Cl |  | 23 | 2.18 |  | 261 | 4 | 26 |  | 7 | 556 | 2.7 | 0.4 | 
11 | COc1cc(Nc2nn([C@H]3COCC[C@@H]3C#N)cc2C(N)=O)cc(F)n1 [ATINVICITINIB] |  | 49 | 1.89 | 14 |  | 13 | 39 | 2 |  |  |  | 0.4 | 
12 | N#Cc1ccc(Nc2nn([C@H]3COCC[C@@H]3C#N)cc2C(N)=O)cc1C1CC1 |  |  | 2.34 |  | 744 | 40 | 72 |  | 11 | > 1500 | 16 | 1.4 | 
13 | N#C[C@H]1CCOC[C@@H]1n1cc(C(N)=O)c(Nc2ccc(-n3ccnn3)cc2)n1 |  | 3 | 1 | 4.8 | 254 | 0.5 | 23 | 2.5 |  | 116 | 0.7 | 0.06 | 96 (≈ 36.3 µg/mL)
14 | N#C[C@H]1CCOC[C@@H]1n1cc(C(N)=O)c(Nc2cc(F)c3nccc(Cl)c3c2)n1 |  | 19 | 1.81 | 52 | 608 | 12 | 14 | 25 | 29 | 1010 | 7 | 0.24 | 
15 | N#C[C@H]1CCOC[C@@H]1n1cc(C(N)=O)c(Nc2ccnc(F)c2)n1 | > 60000 | 19 | 1.18 | 5 |  | 3 |  | 1.5 |  | 511 |  |  | 159 (≈ 52.5 µg/mL)
16 | CN([C@H]1CC[C@H](n2cc(C(N)=O)c(Nc3ccc(Cl)cc3)n2)[C@@H](C#N)C1)C1(C)COC1 | 46000 |  |  | 80 |  |  |  | 32 |  |  |  |  | 
17 | N#C[C@H]1CCOC[C@@H]1n1cc(C(N)=O)c(Nc2ccc([C@H](O)C(F)(F)F)cc2)n1 | > 60000 | 9 | 1.93 | < 40 |  | 0.4 |  | < 20 |  | 100 |  |  | 
18 | COc1ccnc2c(F)cc(Nc3nn([C@H]4COCC[C@@H]4C#N)cc3C(N)=O)cc12 |  |  | 1.4 | 15 | 2110 | 8 | 24 | 15 | 53 | > 1500 | 10 | 0.19 | 
